The results in this text go back to ChEMBL document CHEMBL1201862, “PubChem BioAssay data set” (2004).

Some test systems named below: KM12; U-251; MDA-N; SF-295; HCC 2998; UO-31; SK-OV-3; T47D; LOX IMVI; HT-29; A549; NCI-H460; OVCAR-3; MDA-MB-231; PC-3; MDA-MB-435; COLO 205; Hs-578T; IGROV-1; A498.
Common to all, as to assay: NCI anticancer screen, dose series, 48 h

Structures are written as SMILES.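 Briefly, cells in 96-well plates were exposed to five compound concentrations for 48 h, and endpoints were estimated by linear interpolation. GI50 marks 50% less growth.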 Calls of active or inactive are those of the source. Cut-off read from the data, not from the text of the source: active = GI50 up to about 1.1 µM and inactive = higher.

Turning to `O=C(Nc1ccc(Cl)cc1)c1cc(S(=O)(=O)NC2=Nc3ccc(Cl)cc3C(c3ccccc3)N2)c(SSc2cc(Cl)c(C(=O)Nc3ccc(Cl)cc3)cc2S(=O)(=O)NC2=Nc3ccc(Cl)cc3C(c3ccccc3)N2)cc1Cl` (stereo not given), the GI50 in the assay on KM12, with U-251, in the assay with MDA-N, with SF-295, in the assay with HCC 2998 and in the assay on UO-31 was > 100 µM (inactive) throughout. Further, the GI50 in the assay with SK-OV-3, in the assay with T47D, with LOX IMVI, in the assay with HT-29, in the assay with A549 and in the assay on NCI-H460 was > 100 µM (inactive) in each case. For the same compound, the GI50 in the assay with OVCAR-3 is > 100 µM (inactive); with MDA-MB-231, 24.3 µM (inactive); in the assay with PC-3, > 100 µM (inactive); in the assay on MDA-MB-435, > 100 µM (inactive); with COLO 205 it was > 100 µM (inactive); in the assay with Hs-578T it was > 100 µM (inactive). Besides, the GI50 in the assay on IGROV-1 and in the assay on A498 was > 100 µM (inactive) throughout.
For `CCN(CC)C(=O)CCNC(C)Cc1c[nH]c2ccccc12` (stereo not given), the GI50 with KM12, in the assay on U-251, with MDA-N, with SF-295, with HCC 2998 and with UO-31 was > 100 µM (inactive) in each case. Besides, the GI50 with SK-OV-3, in the assay on T47D, in the assay with LOX IMVI, in the assay with HT-29, with A549 and with NCI-H460 was > 100 µM (inactive) throughout. Further, the GI50 with OVCAR-3, with MDA-MB-231, with PC-3, with MDA-MB-435, with COLO 205 and with Hs-578T was > 100 µM (inactive) each time. Further, the GI50 with IGROV-1 and with A498 was > 100 µM (inactive) in each case.
In the case of `Cc1ccc2c(sc(-c3ccc4c(c3)sc(-c3ccc(N(C)C)cc3)[n+]4C)[n+]2C)c1S(=O)(=O)O.Cc1ccc2c(sc(-c3ccc4c(c3)sc(-c3ccc5c(c3)sc(-c3ccc(N(C)C)cc3)[n+]5C)[n+]4C)[n+]2C)c1S(=O)(=O)O`, the GI50 was 73.1 µM (inactive) with KM12; > 100 µM (inactive) in the assay on U-251; > 100 µM (inactive) with MDA-N; > 100 µM (inactive) with SF-295; > 100 µM (inactive) in the assay on HCC 2998; > 100 µM (inactive) with UO-31. Further, the GI50 in the assay on SK-OV-3 is > 100 µM (inactive); in the assay on T47D, 85.9 µM (inactive); in the assay on LOX IMVI, > 100 µM (inactive); with HT-29, > 100 µM (inactive); in the assay with A549, > 100 µM (inactive); in the assay with NCI-H460 it was 10 µM (inactive). In addition, the GI50 with OVCAR-3 was > 100 µM (inactive); in the assay with MDA-MB-231, 22 µM (inactive); in the assay with PC-3 it was > 100 µM (inactive); with MDA-MB-435 it was > 100 µM (inactive); with COLO 205, > 100 µM (inactive); with Hs-578T, 72.4 µM (inactive). Moreover, the GI50 in the assay with IGROV-1 is 9.79 µM (inactive); with A498 it was > 100 µM (inactive).
Take `COc1cc(-c2cc(=O)c3cc4c(=O)cc(-c5cc(OC)c(OC)c(OC)c5)oc4cc3o2)cc(OC)c1OC`: the GI50 is > 100 µM (inactive) in the assay with KM12; 8.59 µM (inactive) with U-251; > 100 µM (inactive) with MDA-N; 17.5 µM (inactive) in the assay with SF-295; > 100 µM (inactive) in the assay with HCC 2998; > 100 µM (inactive) in the assay with UO-31. Besides, the GI50 with SK-OV-3 is 18.8 µM (inactive); in the assay with T47D it was > 54.8 µM (inactive); in the assay on LOX IMVI, 36.1 µM (inactive); with HT-29, > 100 µM (inactive); in the assay on A549 it was 88.9 µM (inactive); in the assay on NCI-H460, > 100 µM (inactive). Moreover, the GI50 is > 87.1 µM (inactive) with OVCAR-3; > 39 µM (inactive) with MDA-MB-231; > 100 µM (inactive) with PC-3; > 100 µM (inactive) in the assay with MDA-MB-435; > 100 µM (inactive) in the assay on COLO 205; 20.1 µM (inactive) with Hs-578T. Also, the GI50 is 22.7 µM (inactive) in the assay with IGROV-1 and 24.7 µM (inactive) with A498.
Turning to `COc1ccc(/C=C/C(=O)Oc2ccc(/C=C3\CCCCC3=O)cc2)cc1`, the GI50 in the assay with KM12 is 56.1 µM (inactive); with U-251, > 94.6 µM (inactive); in the assay with MDA-N, > 100 µM (inactive); with SF-295 it was 18.4 µM (inactive); in the assay on HCC 2998 it was > 39.1 µM (inactive); in the assay with UO-31, > 100 µM (inactive). Moreover, the GI50 was > 100 µM (inactive) in the assay with SK-OV-3; > 100 µM (inactive) in the assay on T47D; > 100 µM (inactive) in the assay with LOX IMVI; 6.28 µM (inactive) in the assay with HT-29; 80.5 µM (inactive) in the assay with A549; > 100 µM (inactive) in the assay on NCI-H460. Also, the GI50 is > 100 µM (inactive) with OVCAR-3; 40.9 µM (inactive) in the assay with MDA-MB-231; > 100 µM (inactive) in the assay on PC-3; > 44.6 µM (inactive) in the assay with MDA-MB-435; 19.5 µM (inactive) with COLO 205; > 80.5 µM (inactive) in the assay with Hs-578T. In addition, the results for the GI50 with IGROV-1 and with A498 were 38.6 µM (inactive) and > 100 µM (inactive), respectively.
Consider `O=C(CCSC1=NCCCN1)c1ccc(F)cc1`, for which the GI50 in the assay with KM12 was 19.7 µM (inactive); with U-251, 17.5 µM (inactive); in the assay on MDA-N, 17.3 µM (inactive); with SF-295, 37.8 µM (inactive); with HCC 2998 it was 18.6 µM (inactive); with UO-31 it was 5.83 µM (inactive). Further, the GI50 in the assay with SK-OV-3 was 21.3 µM (inactive); with T47D, 21.9 µM (inactive); in the assay with LOX IMVI, 18.9 µM (inactive); in the assay on HT-29 it was 20.2 µM (inactive); in the assay on A549, 20.4 µM (inactive); with NCI-H460, 22 µM (inactive). For the same compound, the GI50 with OVCAR-3 was 22.9 µM (inactive); in the assay on MDA-MB-231, 21.5 µM (inactive); with PC-3 it was 14.9 µM (inactive); with MDA-MB-435 it was 18.5 µM (inactive); with COLO 205, 5.98 µM (inactive); in the assay on Hs-578T it was 22 µM (inactive). In addition, the results for the GI50 in the assay with IGROV-1 and in the assay with A498 were 18 µM (inactive) and 20.6 µM (inactive), respectively.
On to `Cc1ccc(S(=O)(=O)N/N=C2/C3CC4CCC2C4C3)cc1` (stereo not given), for which the GI50 with KM12, in the assay on U-251, in the assay on MDA-N, in the assay with SF-295, in the assay on HCC 2998 and in the assay with UO-31 was > 100 µM (inactive) throughout. The GI50 in the assay on SK-OV-3, in the assay on T47D, in the assay with LOX IMVI, with HT-29, in the assay with A549 and in the assay with NCI-H460 was > 100 µM (inactive) each time. The GI50 with OVCAR-3, with MDA-MB-231, in the assay with PC-3, with MDA-MB-435, in the assay on COLO 205 and in the assay with Hs-578T was > 100 µM (inactive) in each case. Further, the GI50 with IGROV-1 and in the assay with A498 was > 100 µM (inactive) throughout.
`O=[N+]([O-])c1cccc2nc3ccccc3c(NCCO)c12`: the GI50 in the assay on KM12 was 0.00366 µM (active); with U-251, 0.00281 µM (active); in the assay with MDA-N, 0.002 µM (active); in the assay with SF-295 it was 0.00467 µM (active); in the assay on HCC 2998, 0.00166 µM (active); in the assay on UO-31, 0.00244 µM (active). Besides, the GI50 in the assay with SK-OV-3 is 0.00387 µM (active); with T47D, 0.000611 µM (active); in the assay with LOX IMVI, 0.00418 µM (active); with HT-29, 0.000108 µM (active); in the assay on A549, 0.0034 µM (active); in the assay with NCI-H460, 0.000767 µM (active). Moreover, the GI50 is 0.000486 µM (active) in the assay on OVCAR-3; 0.00215 µM (active) with MDA-MB-231; 0.00378 µM (active) with PC-3; 0.00179 µM (active) with MDA-MB-435; 0.00167 µM (active) in the assay with COLO 205; 0.00684 µM (active) with Hs-578T. In addition, the GI50 in the assay on IGROV-1 was 0.00269 µM (active); in the assay with A498 it was 0.00383 µM (active).
`CCNCC(=O)O[C@]1(CC)C(=O)OCc2c1cc1n(c2=O)Cc2cc3ccccc3nc2-1`: the GI50 in the assay on KM12 is 0.778 µM (active); with U-251 it was 0.0614 µM (active); in the assay with MDA-N it was 1.36 µM (inactive); in the assay on SF-295, 0.0586 µM (active); in the assay with HCC 2998, 1.04 µM (active); in the assay with UO-31 it was 0.158 µM (active). Moreover, the GI50 with SK-OV-3 was 0.258 µM (active); with T47D, 0.203 µM (active); with LOX IMVI, 0.0893 µM (active); in the assay with HT-29, 0.889 µM (active); with A549, 0.157 µM (active); with NCI-H460, 0.0277 µM (active). Besides, the GI50 with OVCAR-3 is 2.07 µM (inactive); in the assay on MDA-MB-231 it was 6.71 µM (inactive); with PC-3 it was 0.741 µM (active); with MDA-MB-435, 1.36 µM (inactive); with COLO 205 it was 1.69 µM (inactive); in the assay with Hs-578T, 25.8 µM (inactive). Besides, the GI50 in the assay with IGROV-1 is 2.2 µM (inactive); in the assay with A498 it was 0.661 µM (active).
With `COC(=O)/C=C1\CCCN1CCc1cc2c(cc1CC#N)OCO2`, the GI50 with KM12 was 30.7 µM (inactive); in the assay on U-251 it was 39.7 µM (inactive); in the assay with MDA-N it was 18.3 µM (inactive); with SF-295, 38.5 µM (inactive); in the assay on HCC 2998, 28.1 µM (inactive); with UO-31 it was 23.8 µM (inactive). In addition, the GI50 in the assay with SK-OV-3 is 34.9 µM (inactive); in the assay with T47D, 38.7 µM (inactive); in the assay on LOX IMVI, > 100 µM (inactive); with HT-29, 32.2 µM (inactive); with A549 it was > 100 µM (inactive); with NCI-H460, 36 µM (inactive). The GI50 in the assay on OVCAR-3 was 22.6 µM (inactive); with MDA-MB-231, 47.9 µM (inactive); in the assay with PC-3 it was > 100 µM (inactive); in the assay with MDA-MB-435 it was 17.3 µM (inactive); in the assay with COLO 205 it was 35.2 µM (inactive); in the assay with Hs-578T, > 100 µM (inactive). Moreover, the GI50 is > 100 µM (inactive) in the assay on IGROV-1 and 32.7 µM (inactive) with A498.
